Several values for one entry are separate records, joined by “and”; a condition that tells them apart may be missing. Equal values may be shown once.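 Grown in 96-well plates, cells were treated for 48 hours with each compound at five concentrations. Insufficient inhibition: endpoint recorded as highest concentration tested. Here, GI50 denotes the concentration required for 50% inhibition of growth. At the TGI there is no net growth.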
Columns and labels:
Assay in all cases: NCI tumour cell line growth inhibition, 48 h
BT-549 breast = tested on: BT-549 breast
EKVX NSCLC = tested on: EKVX NSCLC
MDA-MB-231 breast = tested on: MDA-MB-231 breast
OVCAR-5 ovarian = tested on: OVCAR-5 ovarian
SF-268 CNS = tested on: SF-268 CNS
SF-295 CNS = tested on: SF-295 CNS
SN12C renal = tested on: SN12C renal
SNB-75 CNS = tested on: SNB-75 CNS
TK-10 renal = tested on: TK-10 renal
UACC-257 melanoma = tested on: UACC-257 melanoma

Work on `CC(=O)c1c(O)c(C)c(O)c(Cc2c(O)c3c(c(C(=O)/C=C/c4ccccc4)c2O)OC(C)(C)C=C3)c1O` yielded a TGI (BT-549 breast) of 8.77 µM, a TGI (EKVX NSCLC) of 12.9 µM and a TGI (MDA-MB-231 breast) of 6.86 µM. The TGI (OVCAR-5 ovarian) was 22.4 µM, the TGI (SF-268 CNS) was 85.7 µM and the TGI (SF-295 CNS) was 11.6 µM. The TGI (SN12C renal) was 9.09 µM, the TGI (SNB-75 CNS) was 7.93 µM and the TGI (TK-10 renal) was over 100 µM. The TGI (UACC-257 melanoma) was 7.16 µM.

`COc1cc(/C=C/C(=O)/C=C/c2cc(OC)c3c(c2)OCO3)cc2c1OCO2` was tested, and the GI50 (BT-549 breast) was 3.02 µM, the TGI (BT-549 breast) was 8.81 µM and the GI50 (EKVX NSCLC) was over 100 µM. The TGI (EKVX NSCLC) was over 100 µM, the GI50 (MDA-MB-231 breast) was 7.89 µM and the TGI (MDA-MB-231 breast) was over 100 µM. The GI50 (OVCAR-5 ovarian) was over 100 µM, the TGI (OVCAR-5 ovarian) was over 100 µM and the GI50 (SF-268 CNS) was 5.47 µM. It also gave a TGI (SF-268 CNS) of over 100 µM, a GI50 (SF-295 CNS) of 11.3 µM and a TGI (SF-295 CNS) of over 100 µM. The GI50 (SN12C renal) was 30.9 µM, the TGI (SN12C renal) was over 100 µM and the GI50 (SNB-75 CNS) was 8.55 µM. For the same compound, the TGI (SNB-75 CNS) was 42.5 µM, the GI50 (TK-10 renal) was 30.3 µM and the TGI (TK-10 renal) was over 100 µM. For the same compound, the GI50 (UACC-257 melanoma) was 3.52 µM and the TGI (UACC-257 melanoma) was 41.9 µM.

Compound `Clc1ccc(-c2cn3ccnc3c(-c3ccc(Cl)cc3)n2)cc1` has a GI50 (BT-549 breast) of 46 µM, a TGI (BT-549 breast) of over 100 µM and a GI50 (EKVX NSCLC) of 31.9 µM. For the same compound, the TGI (EKVX NSCLC) was over 100 µM, the GI50 (MDA-MB-231 breast) was 7.04 µM and the TGI (MDA-MB-231 breast) was 47 µM. The GI50 (OVCAR-5 ovarian) was 32.9 µM, the TGI (OVCAR-5 ovarian) was over 100 µM and the GI50 (SF-268 CNS) was 15.4 µM. It also gave a TGI (SF-268 CNS) of over 100 µM, a GI50 (SF-295 CNS) of 11.1 µM and a TGI (SF-295 CNS) of 91.7 µM. The GI50 (SN12C renal) was 16.7 µM, the TGI (SN12C renal) was 95.1 µM and the GI50 (SNB-75 CNS) was over 100 µM. It also gave a TGI (SNB-75 CNS) of over 100 µM, a GI50 (TK-10 renal) of 22.6 µM and a TGI (TK-10 renal) of 73.5 µM. For the same compound, the GI50 (UACC-257 melanoma) was 2.58 µM and the TGI (UACC-257 melanoma) was 33.9 µM.

For `CC1=C([Se]CC(OC(=O)CC[Se]c2ccccc2)C(=O)NC(C)(C)C)C(=O)c2ccccc2C1=O` (configuration not stated), the GI50 (BT-549 breast) was 1.64 µM, the TGI (BT-549 breast) was 3.15 µM and the GI50 (EKVX NSCLC) was 1.73 µM. The TGI (EKVX NSCLC) was 3.8 µM, the GI50 (MDA-MB-231 breast) was 1.55 µM and the TGI (MDA-MB-231 breast) was 3.01 µM. The GI50 (OVCAR-5 ovarian) was 1.75 µM, the TGI (OVCAR-5 ovarian) was 3.18 µM and the GI50 (SF-268 CNS) was 1.76 µM. The TGI (SF-268 CNS) was 3.29 µM, the GI50 (SF-295 CNS) was 0.316 µM and the TGI (SF-295 CNS) was 1.37 µM. The GI50 (SN12C renal) was 1.67 µM, the TGI (SN12C renal) was 3.13 µM and the GI50 (SNB-75 CNS) was 1.47 µM. For the same compound, the TGI (SNB-75 CNS) was 2.82 µM, the GI50 (TK-10 renal) was 1.99 µM and the TGI (TK-10 renal) was 3.62 µM. It also gave a GI50 (UACC-257 melanoma) of 1.57 µM and a TGI (UACC-257 melanoma) of 2.95 µM.

For `Cc1c2cnccc2c(C)c2c1c1cc(C#N)ccc1n2C`, the GI50 (BT-549 breast) was 0.406 µM, the TGI (BT-549 breast) was 1.97 µM and the GI50 (EKVX NSCLC) was 0.219 µM. It also gave a TGI (EKVX NSCLC) of 0.624 µM, a GI50 (MDA-MB-231 breast) of 0.237 µM and a TGI (MDA-MB-231 breast) of 1.1 µM. It also gave a GI50 (OVCAR-5 ovarian) of 0.262 µM, a TGI (OVCAR-5 ovarian) of 1.47 µM and a GI50 (SF-268 CNS) of 0.209 µM. It also gave a TGI (SF-268 CNS) of 1.59 µM, a GI50 (SF-295 CNS) of 0.201 µM and a TGI (SF-295 CNS) of 0.859 µM. The GI50 (SN12C renal) was 0.149 µM, the TGI (SN12C renal) was 1.14 µM and the GI50 (SNB-75 CNS) was 0.179 µM. For the same compound, the TGI (SNB-75 CNS) was 0.966 µM, the GI50 (TK-10 renal) was 0.266 µM and the TGI (TK-10 renal) was 1.62 µM. It also gave a GI50 (UACC-257 melanoma) of 0.207 µM and a TGI (UACC-257 melanoma) of 0.788 µM.

`CCSC1=NC2C(N(CC)C(=O)N2CC)N1/N=C/C=C/c1ccccc1[N+](=O)[O-]` (configuration not stated) showed a GI50 (BT-549 breast) of 0.284 µM, a TGI (BT-549 breast) of 4.23 µM and a GI50 (EKVX NSCLC) of 0.314 µM. The TGI (EKVX NSCLC) was over 100 µM, the GI50 (MDA-MB-231 breast) was 0.312 µM and the GI50 (OVCAR-5 ovarian) was 0.426 µM. It also gave a TGI (OVCAR-5 ovarian) of over 100 µM, a GI50 (SF-268 CNS) of 0.486 µM and a TGI (SF-268 CNS) of over 100 µM. The GI50 (SF-295 CNS) was 0.0612 µM, the TGI (SF-295 CNS) was over 100 µM and the GI50 (SN12C renal) was 0.401 µM. For the same compound, the TGI (SN12C renal) was over 100 µM, the GI50 (SNB-75 CNS) was 0.0528 µM and the TGI (SNB-75 CNS) was over 100 µM. The GI50 (TK-10 renal) was 36.8 µM, the TGI (TK-10 renal) was over 100 µM and the GI50 (UACC-257 melanoma) was 23.8 µM. The TGI (UACC-257 melanoma) was over 100 µM.

`COc1ccc(C2=Nn3c(nnc3-c3cc(Cl)cc(Cl)c3Cl)SC2)cc1` gave a GI50 (BT-549 breast) of 0.661 µM, a TGI (BT-549 breast) of over 21.9 µM and a GI50 (EKVX NSCLC) of 0.622 µM. For the same compound, the TGI (EKVX NSCLC) was over 46.1 µM, the GI50 (MDA-MB-231 breast) was 0.81 µM and the TGI (MDA-MB-231 breast) was 26.2 µM. The GI50 (OVCAR-5 ovarian) was 1.42 µM, the TGI (OVCAR-5 ovarian) was over 100 µM and the GI50 (SF-268 CNS) was 1.3 µM. The TGI (SF-268 CNS) was over 100 µM, the GI50 (SF-295 CNS) was 0.0576 µM and the TGI (SF-295 CNS) was 1.4 µM. It also gave a GI50 (SN12C renal) of 1.54 µM, a TGI (SN12C renal) of over 100 µM and a GI50 (SNB-75 CNS) of 0.335 µM. For the same compound, the GI50 (TK-10 renal) was 2.26 µM, the TGI (TK-10 renal) was over 53.9 µM and the GI50 (UACC-257 melanoma) was 0.362 µM. For the same compound, the TGI (UACC-257 melanoma) was over 95.3 µM.

`FC(F)(F)c1cccc(-c2nc3nc(Cl)c(Cl)nc3[nH]2)c1` gave a TGI (BT-549 breast) of 51.8 µM, a TGI (EKVX NSCLC) of 23.2 µM and a TGI (MDA-MB-231 breast) of 8.39 µM. The TGI (OVCAR-5 ovarian) was 16 µM, the TGI (SF-268 CNS) was over 65.8 µM and the TGI (SF-295 CNS) was over 100 µM. For the same compound, the TGI (SN12C renal) was over 35.9 µM, the TGI (SNB-75 CNS) was 7.06 µM and the TGI (TK-10 renal) was over 76.1 µM. For the same compound, the TGI (UACC-257 melanoma) was over 30.9 µM.

In the case of `O=C(Nc1cccc(Cl)c1)Nn1cnnc1`, the GI50 (BT-549 breast) is reported as over 50 µM, the TGI (BT-549 breast) is reported as over 100 µM and the TGI (EKVX NSCLC) is reported as over 100 µM. It also gave a GI50 (MDA-MB-231 breast) of over 50 µM, a TGI (MDA-MB-231 breast) of over 100 µM and a GI50 (OVCAR-5 ovarian) of over 50 µM. For the same compound, the TGI (OVCAR-5 ovarian) was > 50 µM and 22.5 µM, the GI50 (SF-268 CNS) was over 50 µM and the TGI (SF-268 CNS) was over 100 µM. For the same compound, the GI50 (SF-295 CNS) was over 50 µM, the TGI (SF-295 CNS) was over 100 µM and the GI50 (SN12C renal) was over 50 µM. It also gave a TGI (SN12C renal) of over 100 µM, a GI50 (SNB-75 CNS) of over 50 µM and a TGI (SNB-75 CNS) of over 100 µM. It also gave a GI50 (TK-10 renal) of over 50 µM, a TGI (TK-10 renal) of over 100 µM and a GI50 (UACC-257 melanoma) of over 50 µM. The TGI (UACC-257 melanoma) was over 100 µM.

`CO/N=C(\COc1ccc2c(c1)[nH]c1ccccc12)c1ccc(OC)cc1` showed a GI50 (BT-549 breast) of over 100 µM, a TGI (BT-549 breast) of over 100 µM and a GI50 (EKVX NSCLC) of 26 µM. It also gave a TGI (EKVX NSCLC) of over 100 µM, a GI50 (MDA-MB-231 breast) of over 100 µM and a TGI (MDA-MB-231 breast) of over 100 µM. The GI50 (OVCAR-5 ovarian) was 61 µM, the TGI (OVCAR-5 ovarian) was over 100 µM and the GI50 (SF-268 CNS) was 56.1 µM. It also gave a TGI (SF-268 CNS) of over 100 µM, a GI50 (SF-295 CNS) of 13.6 µM and a TGI (SF-295 CNS) of 99.2 µM. It also gave a GI50 (SN12C renal) of 57.9 µM, a TGI (SN12C renal) of over 100 µM and a GI50 (SNB-75 CNS) of 6.66 µM. It also gave a TGI (SNB-75 CNS) of over 100 µM, a GI50 (TK-10 renal) of 13.6 µM and a TGI (TK-10 renal) of 66.7 µM. For the same compound, the GI50 (UACC-257 melanoma) was 11.4 µM and the TGI (UACC-257 melanoma) was 47.1 µM.

With `C/C(=N/O)c1cccc(Nc2cc(-n3nnc4ccccc43)nc3ccccc23)c1` the GI50 (BT-549 breast) was 19.5 µM, the TGI (BT-549 breast) was 54.7 µM and the GI50 (EKVX NSCLC) was 8.07 µM. It also gave a TGI (EKVX NSCLC) of over 32 µM, a GI50 (MDA-MB-231 breast) of 7.2 µM and a TGI (MDA-MB-231 breast) of over 23.4 µM. It also gave a GI50 (OVCAR-5 ovarian) of 22.5 µM, a TGI (OVCAR-5 ovarian) of 84.9 µM and a GI50 (SF-268 CNS) of 17.2 µM. It also gave a TGI (SF-268 CNS) of over 64 µM, a GI50 (SF-295 CNS) of 5.62 µM and a TGI (SF-295 CNS) of 19.8 µM. It also gave a GI50 (SN12C renal) of 8.96 µM, a TGI (SN12C renal) of 30.5 µM and a GI50 (SNB-75 CNS) of 35.6 µM. The TGI (SNB-75 CNS) was over 100 µM, the GI50 (TK-10 renal) was 13.6 µM and the TGI (TK-10 renal) was 50.2 µM. For the same compound, the GI50 (UACC-257 melanoma) was 22.7 µM and the TGI (UACC-257 melanoma) was over 64.4 µM.
